Species: Rattus norvegicus
Test: Open TG-GATES - Regimen: Daily Repeat
Type: toxicity, organism-based, Sprague-Dawley
Set-up: regimen Daily Repeat, gender Male, age 6 weeks
Details: in vivo, iv, route intravenous injection; for APTT / Bas / Eos / Fbg / Hb / Ht / Lym / MCV / Mono / Plat / RBC / Ret / WBC / MCHC / PT: tissue Blood; for KIDNEY_L / KIDNEY_R / KIDNEY_TOTAL: tissue Kidney; for ALP / ALT / BUN / CRE / DBIL / GLC / IP / K / LDH / PL / RALB / TBIL / TC / TG / TP / gamma-GTP / AST: tissue Plasma; for LIVER: tissue Liver
[1] = 0 mg/kg, 72 h, dose level Control, time 3 day
[2] = 0 mg/kg, […], dose level Control, time 7 day
[3] = 0 mg/kg, […], dose level Control, time 14 day
[4] = 0 mg/kg, […], dose level Control, time 28 day
[5] = 1 mg/kg, 72 h, dose level High, time 3 day

With CISPLATIN the TERMINAL_BW [1] was 225.2 g, the APTT [1] was 23.7 s and the Bas [1] was 0%. For the same sequence, the Eos [1] was 1%, the Fbg [1] was 289.6 mg/dL and the Hb [1] was 12.9 g/dL. It also gave a Ht [1] of 39.8%, a Lym [1] of 80.8% and an MCV [1] of 63 fL. For the same sequence, the Mono [1] was 2.6%, the Plat [1] was 132.8 x10_4/uL and the RBC [1] was 631.8 x10_4/ul. It also gave a Ret [1] of 5.8%, a WBC [1] of 106.8 x10_2/uL and a KIDNEY_L [1] of 1 g. The KIDNEY_R [1] was 1 g, the KIDNEY_TOTAL [1] was 1.9 g and the ALP [1] was 1659.4 IU/L. For the same sequence, the ALT [1] was 40.4 IU/L, the BUN [1] was 16.2 mg/dL and the CRE [1] was 0.2 mg/dL. It also gave a DBIL [1] of 0 mg/dL, a GLC [1] of 196.6 mg/dL and an IP [1] of 6.7 mg/dL. It also gave a K [1] of 4.2 meq/L, an LDH [1] of 219.6 IU/L and a PL [1] of 136 mg/dL. For the same sequence, the RALB [1] was 2.9 g/dL, the TBIL [1] was 0.004 mg/dL and the TC [1] was 69.4 mg/dL. It also gave a TG [1] of 113.4 mg/dL, a TP [1] of 5.4 g/dL and a gamma-GTP [1] of 1.6 IU/L. For the same sequence, the TERMINAL_BW [2] was 261.4 g, the TERMINAL_BW [3] was 291.7 g and the TERMINAL_BW [4] was 381.4 g. The APTT [2] was 24.4 s, the Bas [2] was 0% and the Eos [2] was 1%. The Fbg [2] was 309.2 mg/dL, the Ht [2] was 40.3% and the Lym [2] was 80%. It also gave an MCHC [2] of 32.7%, an MCV [2] of 63.8 fL and a Mono [2] of 2.4%. For the same sequence, the PT [2] was 16.1 s, the Plat [2] was 128.5 x10_4/uL and the RBC [2] was 632.6 x10_4/ul. It also gave a Ret [2] of 5.5%, a WBC [2] of 155.9 x10_2/uL and an APTT [3] of 23.9 s. The Bas [3] was 0%, the Eos [3] was 0.8% and the Fbg [3] was 345.4 mg/dL. For the same sequence, the Ht [3] was 41.9%, the Lym [3] was 80.8% and the MCHC [3] was 33%. For the same sequence, the MCV [3] was 60.9 fL, the Mono [3] was 2.8% and the PT [3] was 15.9 s. It also gave a Plat [3] of 117.5 x10_4/uL, an RBC [3] of 688.8 x10_4/ul and a Ret [3] of 3.8%. It also gave a WBC [3] of 116.1 x10_2/uL, an APTT [4] of 24.5 s and a Bas [4] of 0%. It also gave an Eos [4] of 1.2%, a Fbg [4] of 311.4 mg/dL and a Hb [4] of 14.6 g/dL. The Ht [4] was 42.7%, the Lym [4] was 81.4% and the MCHC [4] was 34.1%. It also gave an MCV [4] of 56.4 fL, a Mono [4] of 3% and a PT [4] of 16 s. The Plat [4] was 104.7 x10_4/uL, the RBC [4] was 757.6 x10_4/ul and the Ret [4] was 2.2%. For the same sequence, the WBC [4] was 114.2 x10_2/uL, the KIDNEY_L [2] was 1.1 g and the KIDNEY_R [2] was 1.1 g. It also gave a KIDNEY_TOTAL [2] of 2.2 g, a KIDNEY_L [3] of 1.2 g and a KIDNEY_R [3] of 1.2 g. The KIDNEY_TOTAL [3] was 2.3 g, the KIDNEY_L [4] was 1.3 g and the KIDNEY_R [4] was 1.3 g. The KIDNEY_TOTAL [4] was 2.7 g, the LIVER [2] was 12.3 g and the LIVER [4] was 15.5 g. It also gave an ALP [2] of 1680.4 IU/L, an ALT [2] of 40.2 IU/L and a BUN [2] of 17.6 mg/dL. For the same sequence, the CRE [2] was 0.2 mg/dL, the DBIL [2] was 0 mg/dL and the IP [2] was 7.2 mg/dL. It also gave a K [2] of 4.3 meq/L, an LDH [2] of 185.6 IU/L and a PL [2] of 135.8 mg/dL. For the same sequence, the RALB [2] was 2.9 g/dL, the TBIL [2] was 0.002 mg/dL and the TC [2] was 69.2 mg/dL. It also gave a TG [2] of 124.6 mg/dL, a TP [2] of 5.4 g/dL and a gamma-GTP [2] of 2.2 IU/L. It also gave an ALP [3] of 1400.6 IU/L, an ALT [3] of 41.2 IU/L and an AST [3] of 81.4 IU/L. It also gave a BUN [3] of 19 mg/dL, a CRE [3] of 0.2 mg/dL and a DBIL [3] of 0 mg/dL. For the same sequence, the GLC [3] was 182.2 mg/dL, the IP [3] was 7.2 mg/dL and the K [3] was 4.3 meq/L. The LDH [3] was 164.4 IU/L, the PL [3] was 146.8 mg/dL and the RALB [3] was 3.1 g/dL. For the same sequence, the TBIL [3] was 0.002 mg/dL, the TC [3] was 70.4 mg/dL and the TG [3] was 117.6 mg/dL. The TP [3] was 5.8 g/dL, the gamma-GTP [3] was 1.8 IU/L and the ALP [4] was 1048.2 IU/L. The ALT [4] was 37.8 IU/L, the AST [4] was 65.2 IU/L and the BUN [4] was 19.2 mg/dL. The CRE [4] was 0.2 mg/dL, the DBIL [4] was 0 mg/dL and the GLC [4] was 196.6 mg/dL. It also gave an IP [4] of 6.4 mg/dL, a K [4] of 4.2 meq/L and an LDH [4] of 130.2 IU/L. For the same sequence, the RALB [4] was 3.1 g/dL, the TBIL [4] was 0.004 mg/dL and the TC [4] was 74.2 mg/dL. The TG [4] was 141.8 mg/dL, the TP [4] was 6 g/dL and the gamma-GTP [4] was 2.8 IU/L. For the same sequence, the APTT [5] was 23.7 s, the Bas [5] was 0% and the Eos [5] was 1%. The Fbg [5] was 288.4 mg/dL, the Ht [5] was 40.9% and the Lym [5] was 87%. For the same sequence, the MCHC [5] was 33%.
